Values quoted from earlier work as cited in patent publication US8815282B1, “Commercial method for production of room temperature-liquid cetyl myristoleate” (priority 2005, dated 2014).

Test system: arthritis in mice
Conditions: pure CMO, Pharmacological Research 47 (2003) 43-47

CCCC/C=C\CCCCCCCC(=O)OCCCCCCCCCCCCCCCC [CMO, cetyl myristoleate]
incidence and severity of arthritis: significant reduction in the incidence and severity of arthritis
